Consider 50 molecules from US8592422B2, “Bicyclic triazole and pyrazole lactams as allosteric modulators of mGluR5 receptors” (Vanderbilt University, priority 2010, dated 2013).

The target in the assay is T1, human mGluR5a receptor (Homo sapiens, UniProt P41594).
T1 construct: cDNA subcloned into pcDNA3.1(-)
The experiment in a line: Cell-based functional Ca2+ mobilization assay (FDSS), potentiation of glutamate EC20 response. To be noted: for pEC50 / EC50: HEK cells transfected with human mGluR5 (H10H or H12H), in presence of EC20 glutamate; for EC50: read-out: EC50; for Emax (%) / Emax: maximum % effect in concentration-response curve, as percent of response to maximally effective glutamate. An outline of the steps:
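HEK293A cells stably expressing human mGluR5a (H10H or H12H clones), plated overnight in glutamate-glutamine-free medium, loaded with Ca2+-sensitive dye (e.g. Fluo-4) and read on FDSS.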
For orientation: Calcium flux is commonly read through the fluorescence of an indicator in the cells.

T1 sequence (P41594 21-1180 isoform P41594-2 limits assumed): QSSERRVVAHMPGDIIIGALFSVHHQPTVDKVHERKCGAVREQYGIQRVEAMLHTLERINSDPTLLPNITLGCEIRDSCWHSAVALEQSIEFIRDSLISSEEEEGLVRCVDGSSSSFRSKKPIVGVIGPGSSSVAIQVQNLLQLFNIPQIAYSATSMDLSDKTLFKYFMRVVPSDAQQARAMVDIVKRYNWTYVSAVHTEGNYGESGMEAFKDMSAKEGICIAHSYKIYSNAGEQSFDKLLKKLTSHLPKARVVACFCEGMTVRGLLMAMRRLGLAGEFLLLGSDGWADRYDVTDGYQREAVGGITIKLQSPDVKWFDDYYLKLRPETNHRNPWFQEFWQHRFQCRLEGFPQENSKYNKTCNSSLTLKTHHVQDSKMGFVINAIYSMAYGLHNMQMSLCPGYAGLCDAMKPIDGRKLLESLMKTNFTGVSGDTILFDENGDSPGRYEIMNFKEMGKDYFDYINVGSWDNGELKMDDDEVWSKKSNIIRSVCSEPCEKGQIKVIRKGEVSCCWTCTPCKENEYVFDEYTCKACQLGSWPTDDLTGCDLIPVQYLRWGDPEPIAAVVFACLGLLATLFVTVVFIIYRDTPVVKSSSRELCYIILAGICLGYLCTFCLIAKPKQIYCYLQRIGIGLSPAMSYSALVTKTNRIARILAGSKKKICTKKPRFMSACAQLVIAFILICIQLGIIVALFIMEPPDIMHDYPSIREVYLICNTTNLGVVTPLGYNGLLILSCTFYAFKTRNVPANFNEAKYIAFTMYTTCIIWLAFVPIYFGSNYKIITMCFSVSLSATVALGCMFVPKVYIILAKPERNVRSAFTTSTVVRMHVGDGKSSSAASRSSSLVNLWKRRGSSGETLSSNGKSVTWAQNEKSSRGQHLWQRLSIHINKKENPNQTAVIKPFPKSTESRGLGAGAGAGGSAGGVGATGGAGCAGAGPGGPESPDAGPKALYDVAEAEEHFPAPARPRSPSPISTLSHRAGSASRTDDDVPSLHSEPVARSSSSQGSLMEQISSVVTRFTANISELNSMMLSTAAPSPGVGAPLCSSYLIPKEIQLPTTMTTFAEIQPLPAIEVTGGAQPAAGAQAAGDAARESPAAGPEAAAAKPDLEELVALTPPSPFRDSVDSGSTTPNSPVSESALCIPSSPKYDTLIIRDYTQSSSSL

In the case of `CC(C)c1cccc(N2CCn3nc(COc4ccccn4)cc3C2=O)n1` [Example 207], the pEC50 (commonly −log10 of the EC50, conventionally taken in molar units) is listed as 6.36; the concentration giving a half-maximal response (EC50) – broadly, the concentration needed to bring the measured effect to its halfway point – is 437 nM; the “Emax (%)” value was 69%.

For `COc1ccc(F)c(N2CCn3nc(COc4ccccn4)cc3C2=O)n1` [Example 208], the negative logarithm of the EC50 (pEC50) turned out to be 6.46, the EC50 came to 347 nM and the “Emax (%)” value is listed as 69%.

On to `COc1nc(N2CCn3nc(COc4ccccn4)cc3C2=O)ncc1F` [Example 209], for which the EC50 worked out at 525 nM and the maximal effect (Emax) (commonly the maximal effect, on the per cent scale that the assay sets) worked out at 62%.

On to `COc1nccc(N2CCn3nc(COc4ccccn4)cc3C2=O)n1` [Example 210], for which the 50% effective concentration (EC50) turned out to be 2140 nM and the Emax was found to be 50%.

For `COc1cncc(N2CCn3nc(COc4ccccn4)cc3C2=O)n1` [Example 213], the concentration for a half-maximal effect (EC50) was determined as 660 nM and the Emax is 56%.

With `COc1ccccc1N1CCn2nc(COc3ccccn3)cc2C1=O` [Example 214], the pEC50 turned out to be 5.97, the EC50 stood at 1100 nM and the “Emax (%)” value stood at 54%.

As for `Cc1cccc(N2CCn3nc(COc4ccccn4)cc3C2=O)c1` [Example 216], the negative logarithm of the EC50 (pEC50) is 6.39, the 50% effective concentration (EC50) came out at 410 nM and the “Emax (%)” value stood at 63%.

Consider `Cc1ccccc1N1CCn2nc(COc3ccccn3)cc2C1=O` [Example 219], for which the negative logarithm of the EC50 (pEC50) is reported as 6.59, the concentration for a half-maximal effect (EC50) came to 260 nM and the “Emax (%)” value is listed as 67%.

As for `Cc1ccc(N2CCn3nc(COc4ccc(F)cc4)cc3C2=O)cc1` [Example 222], the negative logarithm of the EC50 (pEC50) was 7.11, the concentration giving a half-maximal response (EC50) is 76 nM and the “Emax (%)” value is 64%.

In the case of `Cc1cccc(N2CCn3nc(COc4ccc(F)cc4)cc3C2=O)c1` [Example 224], the negative logarithm of the EC50 (pEC50) was found to be 7.02, the EC50 is 95 nM and the “Emax (%)” value amounted to 72%.

Take `Cc1cc(N2CCn3nc(COc4ccc(F)cc4)cc3C2=O)ccc1F` [Example 225]: the EC50 is 61 nM and the maximal effect (Emax) was determined as 58%.

As for `COc1nccnc1N1CCn2nc(COc3ccc(F)cc3)cc2C1=O` [Example 226], the negative logarithm of the EC50 (pEC50) amounted to 6.08, the 50% effective concentration (EC50) was found to be 830 nM and the “Emax (%)” value is 57%.

On to `COc1nccc(N2CCn3nc(COc4ccc(F)cc4)cc3C2=O)n1` [Example 227], for which the negative-log EC50 (pEC50) worked out at 6.59, the half-maximal effective concentration (EC50) came to 260 nM and the “Emax (%)” value is listed as 62%.

As to `COc1cc(N2CCn3nc(COc4ccc(F)cc4)cc3C2=O)ccc1F` [Example 228], the EC50 turned out to be 120 nM and the maximal response (Emax) was 65%.

`COc1nc(N2CCn3nc(COc4ccc(F)cc4)cc3C2=O)ncc1C` [Example 230]: the pEC50 is on record as 6.78, the half-maximal effective concentration (EC50) turned out to be 170 nM and the “Emax (%)” value is given as 72%.

On to `COc1cncc(N2CCn3nc(COc4ccc(F)cc4)cc3C2=O)n1` [Example 231], for which the negative-log EC50 (pEC50) was 6.92, the concentration giving a half-maximal response (EC50) is 110 nM and the “Emax (%)” value is recorded as 67%.

For the molecule `Cc1cccc(OCc2cc3n(n2)CC(C)N(c2ccc(F)cc2)C3=O)c1` (stereo not shown) [Example 243], the pEC50 amounted to 7.05, the EC50 worked out at 89 nM and the “Emax (%)” value is 68%.

Turning to `CC1Cn2nc(COc3cccc(F)c3)cc2C(=O)N1c1ccc(F)cc1` (stereo not shown) [Example 244], the pEC50 was found to be 7.25, the EC50 turned out to be 56 nM and the “Emax (%)” value came to 78%.

Consider `CC1Cn2nc(COc3ccc(F)cc3)cc2C(=O)N1c1ccc(F)cc1` (stereo not shown) [Example 245], for which the pEC50 is given as 6.86, the half-maximal effective concentration (EC50) is 138 nM and the “Emax (%)” value turned out to be 74%.

Regarding `C[C@@H]1Cn2nc(COc3cccc(C#N)c3)cc2C(=O)N1c1ccc(F)cc1` [Example 246], the EC50 is 214 nM and the maximum response (Emax) came out at 69%.

For `CC1Cn2nc(COc3ccccn3)cc2C(=O)N1c1ccc(F)cc1` (stereo not shown) [Example 247], the negative-log EC50 (pEC50) is given as 6.23, the concentration giving a half-maximal response (EC50) was 589 nM and the “Emax (%)” value is 73%.

Regarding `CC1Cn2nc(COc3ccccc3)cc2C(=O)N1` (stereo not shown) [Example 255], the pEC50 is listed as less than 5.00, the EC50 is more than 10000 nM and the “Emax (%)” value worked out at 46%.

As for `O=C1c2c(Cl)c(COc3ccccc3)nn2CCN1CC1CC1` [Example 259], the negative logarithm of the EC50 (pEC50) is on record as less than 4.52, the EC50 was more than 30200 nM and the “Emax (%)” value stood at 14%.

Consider `O=C1c2c(Cl)c(COc3ccccc3)nn2CCN1c1ccc(F)cc1` [Example 260], for which the negative-log EC50 (pEC50) is less than 4.52, the concentration for a half-maximal effect (EC50) was more than 30200 nM and the “Emax (%)” value came out at 17%.

Consider `Cc1c(COc2ccccc2)nn2c1C(=O)N(CC1CC1)CC2` [Example 261], for which the concentration for a half-maximal effect (EC50) was more than 30200 nM and the Emax is 23%.

For `Cc1c(COc2ccccc2)nn2c1C(=O)N(c1ccc(F)cc1)CC2` [Example 262], the pEC50 is recorded as 6.05, the concentration giving a half-maximal response (EC50) was 891 nM and the “Emax (%)” value was determined as 32%.

Consider `O=C1c2cc(COc3ccccc3)nn2CC(CO)N1c1ccc(F)cc1` (stereo not shown) [Example 265], for which the negative logarithm of the EC50 (pEC50) came out at 5.65, the EC50 turned out to be 2240 nM and the “Emax (%)” value came out at 60%.

In the case of `O=C1c2cc(COc3ccccc3)nn2CC(CF)N1c1ccc(F)cc1` (stereo not shown) [Example 266], the negative-log EC50 (pEC50) came out at 6.94, the 50% effective concentration (EC50) turned out to be 115 nM and the “Emax (%)” value was determined as 65%.

As for `COCC1Cn2nc(COc3ccccc3)cc2C(=O)N1c1ccc(F)cc1` (stereo not shown) [Example 267], the pEC50 is 6.03, the concentration giving a half-maximal response (EC50) came to 933 nM and the “Emax (%)” value was 70%.

As for `O=C1c2cc(COc3ccccc3)nn2CC(CO)N1c1ccc(F)cc1` (stereo not shown) [Example 268], the pEC50 is less than 5.00, the EC50 was more than 10000 nM and the “Emax (%)” value stood at 27%.

Regarding `O=C1c2cc(COc3ccccc3)nn2CC(CF)N1c1ccc(F)cc1` (stereo not shown) [Example 269], the negative logarithm of the EC50 (pEC50) is 6.16, the EC50 was determined as 692 nM and the “Emax (%)” value was 58%.

Take `COC[C@@H]1Cn2nc(COc3ccccc3)cc2C(=O)N1c1ccc(F)cc1` [Example 270]: the concentration giving a half-maximal response (EC50) is more than 10000 nM and the maximal effect (Emax) worked out at 39%.

As for `O=C1c2cc(COc3ccccc3)nn2CCN1c1cccc(C2CCOCC2)n1` [Example 274], the pEC50 was 5.59, the half-maximal effective concentration (EC50) stood at 2570 nM and the “Emax (%)” value was found to be 65%.

`O=C1c2cc(COc3ccccc3)nn2CCN1c1cccc(C2CCNCC2)n1` [Example 275]: the negative logarithm of the EC50 (pEC50) was less than 4.52, the EC50 is more than 30200 nM and the “Emax (%)” value is reported as 36%.

In the case of `CN(C)c1ccnc(N2CCn3nc(COc4ccccc4)cc3C2=O)n1` [Example 276], the pEC50 is 5.90, the concentration giving a half-maximal response (EC50) came to 1260 nM and the “Emax (%)” value was 68%.

Consider `CNc1ccnc(N2CCn3nc(COc4ccccc4)cc3C2=O)n1` [Example 277], for which the pEC50 was determined as 6.03, the concentration giving a half-maximal response (EC50) came to 933 nM and the “Emax (%)” value is reported as 63%.

Turning to `CNc1cccc(N2CCn3nc(COc4ccccc4)cc3C2=O)n1` [Example 278], the concentration for a half-maximal effect (EC50) came out at 275 nM and the Emax was 56%.

For `O=C1c2cc(COc3ccccc3)nn2CCN1c1cccc(N2CCCC2)n1` [Example 281], the pEC50 was 6.58, the EC50 was 263 nM and the “Emax (%)” value is given as 68%.

As to `CN(C)c1ccc(F)c(N2CCn3nc(COc4ccccc4)cc3C2=O)n1` [Example 283], the pEC50 amounted to 7.39, the EC50 turned out to be 41 nM and the “Emax (%)” value turned out to be 77%.

As for `CN(C)c1ccc(N2CCn3nc(COc4ccccc4)cc3C2=O)nn1` [Example 284], the negative logarithm of the EC50 (pEC50) was 5.55, the EC50 was determined as 2820 nM and the “Emax (%)” value is on record as 53%.

`Nc1cccc(N2CCn3nc(COc4ccccc4)cc3C2=O)n1` [Example 285]: the pEC50 is on record as 6.13, the concentration for a half-maximal effect (EC50) is 741 nM and the “Emax (%)” value is on record as 68%.

For `CN(C)c1nccnc1N1CCn2nc(COc3ccccc3)cc2C1=O` [Example 288], the pEC50 is given as 6.40, the EC50 turned out to be 398 nM and the “Emax (%)” value was determined as 69%.

For `CN(C)c1cccnc1N1CCn2nc(COc3ccccc3)cc2C1=O` [Example 289], the half-maximal effective concentration (EC50) was 1200 nM and the maximal effect (Emax) was found to be 65%.

Take `Cc1cc(N(C)C)nc(N2CCn3nc(COc4ccccc4)cc3C2=O)c1` [Example 290]: the negative logarithm of the EC50 (pEC50) is reported as 7.33, the EC50 was 47 nM and the “Emax (%)” value stood at 56%.

For the molecule `Cc1ccc(N2CCn3nc(COc4ccccc4)cc3C2=O)nc1N(C)C` [Example 292], the pEC50 was 7.47, the EC50 was 34 nM and the “Emax (%)” value amounted to 66%.

As to `COc1nc(N2CCn3nc(COc4ccccc4)cc3C2=O)ncc1Cl` [Example 295], the pEC50 was found to be 7.56, the EC50 was determined as 28 nM and the “Emax (%)” value was 69%.

As for `COc1cc(N2CCn3nc(COc4ccccc4)cc3C2=O)nnc1Cl` [Example 296], the EC50 came to 620 nM and the maximum response (Emax) turned out to be 50%.

For the molecule `COc1ncc(C)cc1N1CCn2nc(COc3ccccc3)cc2C1=O` [Example 298], the pEC50 was 6.58, the concentration giving a half-maximal response (EC50) was 260 nM and the “Emax (%)” value is recorded as 73%.

For `COc1ccc(N2CCn3nc(COc4ccccc4)cc3C2=O)nc1OC` [Example 301], the negative logarithm of the EC50 (pEC50) was 7.02, the EC50 worked out at 96 nM and the “Emax (%)” value was found to be 58%.

Regarding `COCc1cc(F)ccc1N1CCn2nc(COc3ccccc3)cc2C1=O` [Example 304], the pEC50 was 6.72, the EC50 came out at 190 nM and the “Emax (%)” value came to 77%.
